Assay results taken from ChEMBL document CHEMBL1201862, “PubChem BioAssay data set” (2004).
“And” between values parts separate entries of the source, which are not always exact repeats. Identical values can stand only once.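 Assay format: 96-well plates, 48-hour exposure. GI50 = concentration required for 50% inhibition of growth.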 The source made the active and inactive calls. Rule as the data show it: active = GI50 up to about 1.1 µM and inactive = higher.

How the values were obtained:
Assay in all cases: NCI anticancer screen, dose series, 48 h
HCT-15 = test system: HCT-15
Hs-578T = test system: Hs-578T
KM12 = test system: KM12
M14 = test system: M14
MDA-N = test system: MDA-N
Malme-3M = test system: Malme-3M
PC-3 = test system: PC-3
SF-268 = test system: SF-268
SK-MEL-28 = test system: SK-MEL-28
SK-OV-3 = test system: SK-OV-3
SNB-19 = test system: SNB-19
SNB-75 = test system: SNB-75
SR = test system: SR
TK-10 = test system: TK-10
CAKI-1 = test system: CAKI-1
HL-60 = test system: HL-60
HOP-92 = test system: HOP-92
NCI-H522 = test system: NCI-H522
RXF 393 = test system: RXF 393
HCC 2998 = test system: HCC 2998

Row | SMILES | GI50 (HCT-15) | GI50 (Hs-578T) | GI50 (KM12) | GI50 (M14) | GI50 (MDA-N) | GI50 (Malme-3M) | GI50 (PC-3) | GI50 (SF-268) | GI50 (SK-MEL-28) | GI50 (SK-OV-3) | GI50 (SNB-19) | GI50 (SNB-75) | GI50 (SR) | GI50 (TK-10) | GI50 (CAKI-1) | GI50 (HL-60) | GI50 (HOP-92) | GI50 (NCI-H522) | GI50 (RXF 393) | GI50 (HCC 2998)
1 | CCOP(=O)(OCC)C1CC(O)C(=O)N1 (stereo unspecified) | > 100 µM | > 100 µM (inactive) | > 100 µM (inactive) | > 100 µM (inactive) | > 100 µM (inactive) | > 100 µM (inactive) | > 100 µM (inactive) | > 100 µM (inactive) | > 100 µM (inactive) | > 100 µM (inactive) | > 100 µM (inactive) | > 100 µM (inactive) | > 100 µM (inactive) | > 100 µM (inactive) | – | – | – | – | – | –
2 | CSc1nc(C#N)c(/N=C\N(C)C)n1C | > 100 µM | > 100 µM (inactive) | > 100 µM (inactive) | > 100 µM (inactive) | > 100 µM (inactive) | > 100 µM (inactive) | > 100 µM (inactive) | > 100 µM (inactive) | > 100 µM (inactive) | > 100 µM (inactive) | > 100 µM (inactive) | – | > 100 µM (inactive) | > 100 µM (inactive) | > 100 µM (inactive) | > 100 µM (inactive) | > 100 µM (inactive) | > 100 µM (inactive) | > 100 µM (inactive) | –
3 | CC(NC(=O)c1ccccc1)(C(=O)O)C(=O)O | > 100 µM | > 100 µM (inactive) | > 100 µM (inactive) | > 100 µM (inactive) | > 100 µM (inactive) | > 100 µM (inactive) | > 100 µM (inactive) | > 100 µM (inactive) | > 100 µM (inactive) | > 100 µM (inactive) | > 100 µM (inactive) | > 100 µM (inactive) | > 100 µM (inactive) | > 100 µM (inactive) | > 100 µM (inactive) | > 100 µM (inactive) | 83 µM (inactive) | > 100 µM (inactive) | > 100 µM (inactive) | –
4 | Cc1cc(=O)oc2c(CNC(C(=O)O)C(C)O)c(O)ccc12 (stereo unspecified) | > 100 µM | 77.4 µM (inactive) | > 100 µM (inactive) | > 100 µM (inactive) | > 100 µM (inactive) | 24.8 µM (inactive) | > 100 µM (inactive) | > 100 µM (inactive) | > 100 µM (inactive) | > 100 µM (inactive) | > 100 µM (inactive) | 8.89 µM (inactive) | > 100 µM (inactive) | > 100 µM (inactive) | > 100 µM (inactive) | > 100 µM (inactive) | > 100 µM (inactive) | > 100 µM (inactive) | > 100 µM (inactive) | –
5 | CN1CCN(c2ccc([N+](=O)[O-])c3no[n+]([O-])c23)CC1 | 0.489 µM | 0.571 µM (active) | 0.098 µM (active) | 0.153 µM (active) | 1.36 µM (inactive) | 0.16 µM (active) | 0.557 µM (active) | 0.0375 µM (active) | 1.98 µM (inactive) | 0.148 µM (active) | 0.914 µM (active) | 0.0103 µM (active) | < 0.01 µM (active) | 0.792 µM (active) | 0.032 µM (active) | 0.0366 µM (active) | 0.526 µM (active) | 0.0295 µM (active) | 0.122 µM (active) | –
6 | COc1ccc2c(Cl)cc(NC(=S)Nc3ccccc3)nc2c1 | 27.9 µM | 14.4 µM (inactive) | 18.7 µM (inactive) | 18.3 µM (inactive) | 15.4 µM (inactive) | 15.2 µM (inactive) | 28.6 µM (inactive) | 24.8 µM (inactive) | 33.6 µM (inactive) | 26 µM (inactive) | 20.6 µM (inactive) | 23.6 µM (inactive) | 26.2 µM (inactive) | 57.7 µM (inactive) | 35.6 µM (inactive) | – | 21.8 µM (inactive) | 13.2 µM (inactive) | 20.2 µM (inactive) | –
7 | CSC1=N/C(=C\c2cccs2)C(=O)N1CN1CCOCC1 | 38.1 µM | 51.6 µM (inactive) | 57.7 µM (inactive) | 61.7 µM (inactive) | 59 µM (inactive) | 44.7 µM (inactive) | 50.8 µM (inactive) | 42.3 µM (inactive) | > 100 µM (inactive) | > 100 µM (inactive) | 45.6 µM (inactive) | 37.5 µM (inactive) | 17.4 µM (inactive) | 86.7 µM (inactive) | – | 0.0465 µM (active) | 4.82 µM (inactive) | 30.1 µM (inactive) | – | –
8 | N=C(N)N/N=C/c1c(-c2cc([N+](=O)[O-])c(Cl)cc2Cl)nc2sccn12 | 2.47 µM and 1.26 µM | 1.54 µM (inactive) and 1.53 µM (inactive) | 168 nM (active) and 1.19 µM (inactive) | 1.66 µM (inactive) | 1.48 µM (inactive) | 1.67 µM (inactive) and 239 nM (active) | 1.45 µM (inactive) and 2.01 µM (inactive) | 1.83 µM (inactive) | 1.38 µM (inactive) and 1.47 µM (inactive) | 1.83 µM (inactive) | – | 0.0155 µM (active) | 0.0368 µM (active) | 1.54 µM (inactive) and 1.57 µM (inactive) | 6.27 µM (inactive) | 2.27 µM (inactive) and 1.53 µM (inactive) | 1.8 µM (inactive) and 1.13 µM (inactive) | 340 nM (active) and 1.76 µM (inactive) | 1.46 µM (inactive) | –
9 | C=C(C)CCC1CCCCC(CN(C)C)C1=O (stereo unspecified) | > 100 µM | > 100 µM (inactive) | > 100 µM (inactive) | > 100 µM (inactive) | > 100 µM (inactive) | – | > 100 µM (inactive) | > 100 µM (inactive) | > 100 µM (inactive) | > 100 µM (inactive) | > 100 µM (inactive) | > 100 µM (inactive) | > 100 µM (inactive) | > 100 µM (inactive) | > 100 µM (inactive) | > 100 µM (inactive) | > 100 µM (inactive) | 10.7 µM (inactive) | – | –
10 | S=C(c1c[nH]c2ccccc12)N1CCN(c2ccccc2)CC1 | > 100 µM | 1.06 µM (active) | 82.8 µM (inactive) | > 100 µM (inactive) | > 100 µM (inactive) | 18.8 µM (inactive) | > 100 µM (inactive) | 19.8 µM (inactive) | 86.9 µM (inactive) | > 100 µM (inactive) | > 100 µM (inactive) | 0.403 µM (active) | > 100 µM (inactive) | > 100 µM (inactive) | > 100 µM (inactive) | > 100 µM (inactive) | – | – | > 100 µM (inactive) | –
11 | Cc1ccc(Cl)c2[nH]c(-c3ccccc3)cc(=O)c12 | 39.2 µM | 59.2 µM (inactive) | 21.4 µM (inactive) | 39.8 µM (inactive) | 22.3 µM (inactive) | > 100 µM (inactive) | 23.3 µM (inactive) | 14.8 µM (inactive) | 39.7 µM (inactive) | > 100 µM (inactive) | – | 36.1 µM (inactive) | – | 47.2 µM (inactive) | – | 23 µM (inactive) | – | 57.1 µM (inactive) | 44 µM (inactive) | 93.1 µM (inactive)
12 | COP(=O)(OC)[C@@](O)(c1ccccc1)[C@@H](O)[C@H](O)c1ccccc1 | > 100 µM | > 100 µM (inactive) | > 100 µM (inactive) | > 100 µM (inactive) | > 100 µM (inactive) | > 100 µM (inactive) | > 100 µM (inactive) | > 100 µM (inactive) | > 100 µM (inactive) | > 100 µM (inactive) | > 100 µM (inactive) | > 100 µM (inactive) | > 100 µM (inactive) | > 100 µM (inactive) | > 100 µM (inactive) | > 100 µM (inactive) | > 100 µM (inactive) | > 100 µM (inactive) | > 100 µM (inactive) | –
